Calls of active or inactive are those of the source. How the calls were made is not given here.
Tested on: CCRIS mutagenicity, Ames/micronucleus/aberration tests
Assay: CCRIS mutagenicity studies
[1] = Test System: AMES SALMONELLA TYPHIMURIUM, Strain/Indicator: TA98, Metabolic Activation: NONE, Method: PREINCUBATION
[2] = Test System: AMES SALMONELLA TYPHIMURIUM, Strain/Indicator: TA100, Metabolic Activation: NONE, Method: PREINCUBATION
[3] = Test System: AMES SALMONELLA TYPHIMURIUM, Strain/Indicator: TA97, Metabolic Activation: RAT, LIVER, S-9, AROCLOR 1254, Method: STANDARD PLATE
[4] = Test System: AMES SALMONELLA TYPHIMURIUM, Strain/Indicator: TA102, Metabolic Activation: RAT, LIVER, S-9, AROCLOR 1254, Method: STANDARD PLATE

Measured: mutagenic call

CC(C)(N=NC(C)(C)C(=N)N)C(=N)N
active: [1] active; positive | Test System: AMES SALMONELLA TYPHIMURIUM, Strain/Indicator: TA98, Metabolic Activation: RAT, LIVER, S-9, PHENOBARBITAL AND 5,6-BENZOFLAVONE, Method: PREINCUBATION active; positive | [2] active; positive | Test System: AMES SALMONELLA TYPHIMURIUM, Strain/Indicator: TA100, Metabolic Activation: RAT, LIVER, S-9, PHENOBARBITAL AND 5,6-BENZOFLAVONE, Method: PREINCUBATION active; positive

[N-]=[N+]=N[C@@H](c1ccccc1)[C@H](O)CO
active: Test System: AMES SALMONELLA TYPHIMURIUM, Strain/Indicator: TA100, Metabolic Activation: RAT, LIVER, S-9, PCB, Method: PREINCUBATION active; positive

CCOC(=O)c1[nH]c2ccccc2c1N=Cc1ccc([N+](=O)[O-])cc1
active: Test System: AMES SALMONELLA TYPHIMURIUM, Strain/Indicator: TA98, Metabolic Activation: RAT, LIVER, S-9, AROCLOR 1254, Method: STANDARD PLATE active; positive
inactive: Test System: AMES SALMONELLA TYPHIMURIUM, Strain/Indicator: TA97, Metabolic Activation: NONE, Method: STANDARD PLATE inactive; negative | [3] inactive; negative | Test System: AMES SALMONELLA TYPHIMURIUM, Strain/Indicator: TA98, Metabolic Activation: NONE, Method: STANDARD PLATE inactive; negative | Test System: AMES SALMONELLA TYPHIMURIUM, Strain/Indicator: TA100, Metabolic Activation: NONE, Method: STANDARD PLATE inactive; negative | Test System: AMES SALMONELLA TYPHIMURIUM, Strain/Indicator: TA100, Metabolic Activation: RAT, LIVER, S-9, AROCLOR 1254, Method: STANDARD PLATE inactive; negative | Test System: AMES SALMONELLA TYPHIMURIUM, Strain/Indicator: TA102, Metabolic Activation: NONE, Method: STANDARD PLATE inactive; negative | [4] inactive; negative

CC(=O)Oc1c2ccccc2c2ccc3cccc4ccc1c2c43
active: Test System: UDS RODENT PRIMARY CELLS, Strain/Indicator: THY INCORP (NON-S-PHASE), Metabolic Activation: NONE, Method: AUTORADIOGRAPHY active; positive

COC(=O)c1ccc(C)cc1
inactive: Test System: AMES SALMONELLA TYPHIMURIUM, Strain/Indicator: TA97, Metabolic Activation: HAMSTER, LIVER, S-9, AROCLOR 1254 (10%), Method: PREINCUBATION inactive; negative | Test System: AMES SALMONELLA TYPHIMURIUM, Strain/Indicator: TA97, Metabolic Activation: HAMSTER, LIVER, S-9, AROCLOR 1254 (30%), Method: PREINCUBATION inactive; negative | Test System: AMES SALMONELLA TYPHIMURIUM, Strain/Indicator: TA97, Metabolic Activation: NONE, Method: PREINCUBATION inactive; negative | Test System: AMES SALMONELLA TYPHIMURIUM, Strain/Indicator: TA97, Metabolic Activation: RAT, LIVER, S-9, AROCLOR 1254 (10%), Method: PREINCUBATION inactive; negative | Test System: AMES SALMONELLA TYPHIMURIUM, Strain/Indicator: TA97, Metabolic Activation: RAT, LIVER, S-9, AROCLOR 1254 (30%), Method: PREINCUBATION inactive; negative | Test System: AMES SALMONELLA TYPHIMURIUM, Strain/Indicator: TA98, Metabolic Activation: HAMSTER, LIVER, S-9, AROCLOR 1254 (10%), Method: PREINCUBATION inactive; negative | Test System: AMES SALMONELLA TYPHIMURIUM, Strain/Indicator: TA98, Metabolic Activation: HAMSTER, LIVER, S-9, AROCLOR 1254 (30%), Method: PREINCUBATION inactive; negative | [1] inactive; negative | Test System: AMES SALMONELLA TYPHIMURIUM, Strain/Indicator: TA98, Metabolic Activation: RAT, LIVER, S-9, AROCLOR 1254 (10%), Method: PREINCUBATION inactive; negative | Test System: AMES SALMONELLA TYPHIMURIUM, Strain/Indicator: TA98, Metabolic Activation: RAT, LIVER, S-9, AROCLOR 1254 (30%), Method: PREINCUBATION inactive; negative | Test System: AMES SALMONELLA TYPHIMURIUM, Strain/Indicator: TA100, Metabolic Activation: HAMSTER, LIVER, S-9, AROCLOR 1254 (10%), Method: PREINCUBATION inactive; negative | Test System: AMES SALMONELLA TYPHIMURIUM, Strain/Indicator: TA100, Metabolic Activation: HAMSTER, LIVER, S-9, AROCLOR 1254 (30%), Method: PREINCUBATION inactive; negative | [2] inactive; negative | Test System: AMES SALMONELLA TYPHIMURIUM, Strain/Indicator: TA100, Metabolic Activation: RAT, LIVER, S-9, AROCLOR 1254 (10%), Method: PREINCUBATION inactive; negative | Test System: AMES SALMONELLA TYPHIMURIUM, Strain/Indicator: TA100, Metabolic Activation: RAT, LIVER, S-9, AROCLOR 1254 (30%), Method: PREINCUBATION inactive; negative | Test System: AMES SALMONELLA TYPHIMURIUM, Strain/Indicator: TA1535, Metabolic Activation: HAMSTER, LIVER, S-9, AROCLOR 1254 (10%), Method: PREINCUBATION inactive; negative | Test System: AMES SALMONELLA TYPHIMURIUM, Strain/Indicator: TA1535, Metabolic Activation: HAMSTER, LIVER, S-9, AROCLOR 1254 (30%), Method: PREINCUBATION inactive; negative | Test System: AMES SALMONELLA TYPHIMURIUM, Strain/Indicator: TA1535, Metabolic Activation: NONE, Method: PREINCUBATION inactive; negative | Test System: AMES SALMONELLA TYPHIMURIUM, Strain/Indicator: TA1535, Metabolic Activation: RAT, LIVER, S-9, AROCLOR 1254 (10%), Method: PREINCUBATION inactive; negative | Test System: AMES SALMONELLA TYPHIMURIUM, Strain/Indicator: TA1535, Metabolic Activation: RAT, LIVER, S-9, AROCLOR 1254 (30%), Method: PREINCUBATION inactive; negative | Test System: AMES SALMONELLA TYPHIMURIUM, Strain/Indicator: TA1537, Metabolic Activation: HAMSTER, LIVER, S-9, AROCLOR 1254 (30%), Method: PREINCUBATION inactive; negative | Test System: AMES SALMONELLA TYPHIMURIUM, Strain/Indicator: TA1537, Metabolic Activation: NONE, Method: PREINCUBATION inactive; negative | Test System: AMES SALMONELLA TYPHIMURIUM, Strain/Indicator: TA1537, Metabolic Activation: RAT, LIVER, S-9, AROCLOR 1254 (30%), Method: PREINCUBATION inactive; negative

C=C(Br)C(=O)O
inactive: [2] inactive; negative | Test System: AMES SALMONELLA TYPHIMURIUM, Strain/Indicator: TA100, Metabolic Activation: RAT, LIVER, MICROSOMES, Method: PREINCUBATION inactive; negative

O=C1c2c(O)ccc(O)c2C(=O)c2c(NCCO)ccc(NCCO)c21
active: Test System: MOUSE LYMPHOMA, Strain/Indicator: L5178Y (TK+/TK-), Metabolic Activation: NONE, Method: SUSPENSION/PLATE active; positive

Cc1c2c3ccccc3nc-2n(C)c2ccccc12
active: [3] active; positive | [4] active; positive
